The target in the experiment is SSTR5 (Homo sapiens (Human), UniProt P35346). Nature of the experiment: SSTR5 binding assay. The note with it: CHO-K1 membranes expressing cloned human SSTR5. On the procedure:
The receptor-ligand binding assays of all 5 subtype of SSTRs were performed with membranes isolated from Chinese hamster ovary (CHO)-K1 cells stably expressing the cloned human somatostatin receptors in 96-well format as previous reported.
The stable cell lines for SSTR1-SSTR5 were developed by stably transfecting with DNA for all five SSTRs using Lipofectamine. […] The assay buffer consisted of 50 mM TrisHCl (pH 7.8) with 1 mM EGTA, […] MgCl2, leupeptin (10 μg/mL), pepstatin (10 μg/mL), bacitracin (200 μg/mL), and aprotinin (0.5 μg/mL). CHO-K1 cell membranes, radiolabeled somatostatin, and unlabeled test compounds were resuspended or diluted in this assay buffer. Unlabeled test compounds were examined over a range of concentrations from 0.01 nM to 10,000 nM.
Compounds exemplified were tested in the SSTR5 binding assay.

Each structure is given as a SMILES string. Where a name gives a salt, the structure may show the parent alone.

The values that follow come from patent US8742110B2, “Spiroxazolidinone compounds” (Merck Sharp & Dohme Corp., priority 2010, dated 2014).

Sequence of SSTR5 (P35346 whole entry): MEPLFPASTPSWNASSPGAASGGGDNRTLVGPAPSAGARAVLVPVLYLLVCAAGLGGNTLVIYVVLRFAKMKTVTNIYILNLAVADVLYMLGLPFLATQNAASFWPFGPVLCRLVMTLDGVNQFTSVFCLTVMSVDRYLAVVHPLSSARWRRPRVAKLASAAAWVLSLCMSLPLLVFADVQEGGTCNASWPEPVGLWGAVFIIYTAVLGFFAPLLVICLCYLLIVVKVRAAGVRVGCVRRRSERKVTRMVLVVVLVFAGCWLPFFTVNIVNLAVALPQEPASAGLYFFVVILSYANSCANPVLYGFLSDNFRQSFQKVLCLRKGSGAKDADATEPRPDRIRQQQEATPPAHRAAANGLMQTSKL

In the case of `CC(C)(C)n1cc(CN2CCC3(CC2)CN(c2ccc(-c4nn[nH]n4)cc2)C(=O)O3)c(-c2cc(F)c(Cl)cc2F)n1` [Example 1-29, 8-{[1-tert-Butyl-3-(4-chloro-2,5-difluorophenyl)-1H-pyrazol-4-yl]methyl}-3-[4-(2H-tetrazol-5-yl)phenyl]-1-oxa-3,8-diazaspiro[4.5]decan-2-one, TFA salt], the IC50 (usually the concentration at which inhibition is half-maximal) was 0.582 nM. This counts as sub-nanomolar. On to `CC(C)(C)n1cc(CN2CCC3(CC2)CN(c2ccc(C(=O)O)cc2)C(=O)O3)c(-c2ccc(F)cc2F)n1` [Example 1-30, 4-(8-{[1-tert-Butyl-3-(2,4-difluorophenyl)-1H-pyrazol-4-yl]methyl}-2-oxo-1-oxa-3,8-diazaspiro[4.5]dec-3-yl)benzoic acid, TFA salt], for which the IC50 turned out to be 1.95 nM. Compared with the last compound, the IC50 is about 3.4-fold higher.

In the case of `CC(C)(C)n1cc(CN2CCC3(CC2)CN(c2ccc(C(=O)O)cc2)C(=O)O3)c(-c2cc(F)c(Cl)cc2F)n1` [Example 1-31, 4-(8-{[1-tert-Butyl-3-(4-chloro-2,5-difluorophenyl)-1H-pyrazol-4-yl]methyl}-2-oxo-1-oxa-3,8-diazaspiro[4.5]dec-3-yl)benzoic acid, TFA salt], the IC50 amounted to 2.09 nM. `COc1ccc(-c2nn(C(C)(C)C)cc2CN2CCC3(CC2)CN(c2ccc(C(=O)O)cc2)C(=O)O3)c(F)c1` [Example 1-32, 4-(8-{[1-tert-Butyl-3-(2-fluoro-4-methoxyphenyl)-1H-pyrazol-4-yl]methyl}-2-oxo-1-oxa-3,8-diazaspiro[4.5]dec-3-yl)benzoic acid, TFA salt] displayed a half-maximal inhibitory concentration (IC50) of 2.05 nM. With `O=C(O)c1ccc(N2CC3(CCN(Cc4cn(C5CCCCC5)nc4-c4cc(F)c(F)cc4F)CC3)OC2=O)cc1` [Example 1-33, 4-(8-{[1-Cyclohexyl-3-(2,4,5-trifluorophenyl)-1H-pyrazol-4-yl]methyl}-2-oxo-1-oxa-3,8-diazaspiro[4.5]dec-3-yl)benzoic acid, TFA salt] the figure was 1.29 nM; with `O=C(O)c1ccc(N2CC3(CCN(Cc4cn(-c5ccccc5)nc4-c4ccc(F)c(Cl)c4)CC3)OC2=O)cc1` [Example 1-34, 4-(8-{[3-(3-Chloro-4-fluorophenyl)-1-phenyl-1H-pyrazol-4-yl]methyl}-2-oxo-1-oxa-3,8-diazaspiro[4.5]dec-3-yl)benzoic acid, TFA salt], 4.67 nM; with `CC(C)(C)c1nn(-c2ccc(F)cc2)cc1CN1CCC2(CC1)CN(c1ccc(C(=O)O)cc1)C(=O)O2` [Example 1-35, 4-(8-{[3-tert-Butyl-1-(4-fluorophenyl)-1H-pyrazol-4-yl]methyl}-2-oxo-1-oxa-3,8-diazaspiro[4.5]dec-3-yl)benzoic acid, TFA salt], 36.2 nM.

In turn, `CCOc1nn(C(C)(C)C)cc1CN1CCC2(CC1)CN(c1ccc(C(=O)O)cc1)C(=O)O2` [Example 1-36, 4-{8-[(1-tert-Butyl-3-ethoxy-1H-pyrazol-4-yl)methyl]-2-oxo-1-oxa-3,8-diazaspiro[4.5]dec-3-yl}benzoic acid, TFA salt] registered a 50% inhibitory concentration (IC50) of 509 nM.

With `Cc1cc(C(=O)O)ccc1N1CC2(CCN(Cc3cn(C(C)(C)C)nc3-c3ccc(F)c(F)c3F)CC2)OC1=O` [Example 1-37, 4-(8-{[1-tert-Butyl-3-(2,3,4-trifluorophenyl)-1H-pyrazol-4-yl]methyl}-2-oxo-1-oxa-3,8-diazaspiro[4.5]dec-3-yl)-3-methylbenzoic acid, TFA salt], the IC50 came out at 1.59 nM. `CC(C)(C)Cn1cc(CN2CCC3(CC2)CN(c2ccc(C(=O)O)cc2)C(=O)O3)c(-c2ccc(F)c(Cl)c2)n1` [Example 1-38, 4-(8-{[3-(3-Chloro-4-fluorophenyl)-1-(2,2-dimethylpropyl)-1H-pyrazol-4-yl]methyl}-2-oxo-1-oxa-3,8-diazaspiro[4.5]dec-3-yl)benzoic acid, TFA salt]: the IC50 was 5.29 nM.

As for `O=C(O)c1ccc(N2CC3(CCN(Cc4c(-c5cc(F)c(F)cc5F)nn(-c5ccccc5)c4Cl)CC3)OC2=O)cc1` [Example 1-39, 4-(8-{[5-Chloro-1-phenyl-3-(2,4,5-trifluorophenyl)-1H-pyrazol-4-yl]methyl}-2-oxo-1-oxa-3,8-diazaspiro[4.5]dec-3-yl)benzoic acid, TFA salt], the IC50 worked out at 44.6 nM. With `CCCCn1cc(CN2CCC3(CC2)CN(c2ccc(C(=O)O)cc2)C(=O)O3)c(Cc2cc(F)c(F)cc2F)n1` [Example 1-40, 4-(8-{[1-Butyl-3-(2,4,5-trifluorobenzyl)-1H-pyrazol-4-yl]methyl}-2-oxo-1-oxa-3,8-diazaspiro[4.5]dec-3-yl)benzoic acid, TFA salt], the IC50 was 8.34 nM.

In turn, `O=C(O)c1ccc(N2CC3(CCN(Cc4cn(CC(F)(F)F)nc4-c4ccc(F)c(F)c4F)CC3)OC2=O)cc1` [Example 1-41, 4-(2-Oxo-8-{[1-(2,2,2-trifluoroethyl)-3-(2,3,4-trifluorophenyl)-1H-pyrazol-4-yl]methyl}-1-oxa-3,8-diazaspiro[4.5]dec-3-yl)benzoic acid, TFA salt] displayed an IC50 of 10.4 nM. `CC(C)(C)n1cc(CN2CCC3(CC2)CN(c2ccc(C(=O)O)c(F)c2)C(=O)O3)c(-c2ccc(F)c(F)c2F)n1` [Example 1-42, 4-(8-{[1-tert-Butyl-3-(2,3,4-trifluorophenyl)-1H-pyrazol-4-yl]methyl}-2-oxo-1-oxa-3,8-diazaspiro[4.5]dec-3-yl)-2-fluorobenzoic acid, TFA salt]: the IC50 is 4.68 nM. Against the preceding compound, the IC50 is about 2.2-fold lower. Regarding `CC(C)(C)n1cc(CN2CCC3(CC2)CN(c2ccc(C(=O)O)cn2)C(=O)O3)c(-c2ccc(F)c(F)c2F)n1` [Example 1-43, 6-(8-{[1-tert-Butyl-3-(2,3,4-trifluorophenyl)-1H-pyrazol-4-yl]methyl}-2-oxo-1-oxa-3,8-diazaspiro[4.5]dec-3-yl)pyridine-3-carboxylic acid, TFA salt], the IC50 is 2.88 nM. In turn, `CCCCn1nc(Cc2cc(F)c(F)cc2F)c(CN2CCC3(CC2)CN(c2ccc(C(=O)O)cc2)C(=O)O3)c1Cl` [Example 1-44, 4-(8-{[5-Chloro-1-butyl-3-(2,4,5-trifluorobenzyl)-1H-pyrazol-4-yl]methyl}-2-oxo-1-oxa-3,8-diazaspiro[4.5]dec-3-yl)benzoic acid, TFA salt] returned an IC50 of 14.3 nM. As for `CC(C)n1nc(Cc2cc(F)c(F)cc2F)c(CN2CCC3(CC2)CN(c2ccc(C(=O)O)cc2)C(=O)O3)c1Cl` [Example 1-45, 4-(8-{[5-Chloro-1-(propan-2-yl)-3-(2,4,5-trifluorobenzyl)-1H-pyrazol-4-yl]methyl}-2-oxo-1-oxa-3,8-diazaspiro[4.5]dec-3-yl)benzoic acid, TFA salt], the IC50 came out at 23 nM.

With `CCCn1nc(Cc2cc(F)c(F)cc2F)c(CN2CCC3(CC2)CN(c2ccc(C(=O)O)cc2)C(=O)O3)c1Cl` [Example 1-46, 4-(8-{[5-Chloro-1-propyl-3-(2,4,5-trifluorobenzyl)-1H-pyrazol-4-yl]methyl}-2-oxo-1-oxa-3,8-diazaspiro[4.5]dec-3-yl)benzoic acid, TFA salt], the IC50 stood at 40.9 nM. For the compound `O=C(O)c1ccc(N2CC3(CCN(Cc4c(Cc5cc(F)c(F)cc5F)nn(-c5ccccc5)c4Cl)CC3)OC2=O)cc1` [Example 1-47, 4-(8-{[5-Chloro-1-phenyl-3-(2,4,5-trifluorobenzyl)-1H-pyrazol-4-yl]methyl}-2-oxo-1-oxa-3,8-diazaspiro[4.5]dec-3-yl)benzoic acid, TFA salt], the IC50 was 79 nM. Compound `Cn1cc(-c2ccc(F)c(F)c2F)c(CN2CCC3(CC2)CN(c2ccc(C(=O)O)cc2)C(=O)O3)n1` [Example 2-1, 4-(8-{[1-Methyl-4-(2,3,4-trifluorophenyl)-1H-pyrazol-3-yl]methyl}-2-oxo-1-oxa-3,8-diazaspiro[4.5]dec-3-yl)benzoic acid, TFA salt] returned an IC50 of 2950 nM. In turn, `Cn1cc(-c2cc(F)c(F)cc2F)c(CN2CCC3(CC2)CN(c2ccc(C(=O)O)cc2)C(=O)O3)n1` [Example 2-2, 4-(8-{[1-Methyl-4-(2,4,5-trifluorophenyl)-1H-pyrazol-3-yl]methyl}-2-oxo-1-oxa-3,8-diazaspiro[4.5]dec-3-yl)benzoic acid, TFA salt] displayed an IC50 of 4320 nM. The IC50 values of the last two compounds are within 1.5-fold of each other. Compound `O=C(O)c1ccc(N2CC3(CCN(Cc4nn(Cc5ccc(Cl)cc5)cc4-c4ccc(F)c(F)c4F)CC3)OC2=O)cc1` [Example 2-3, 4-(8-{[1-(4-Chlorobenzyl)-4-(2,3,4-trifluorophenyl)-1H-pyrazol-3-yl]methyl}-2-oxo-1-oxa-3,8-diazaspiro[4.5]dec-3-yl)benzoic acid, TFA salt] had an IC50 of 89.3 nM. `O=C(O)c1ccc(N2CC3(CCN(Cc4nn(Cc5ccc(Cl)cc5)cc4-c4cc(F)c(F)cc4F)CC3)OC2=O)cc1` [Example 2-4, 4-(8-{[1-(4-Chlorobenzyl)-4-(2,4,5-trifluorophenyl)-1H-pyrazol-3-yl]methyl}-2-oxo-1-oxa-3,8-diazaspiro[4.5]dec-3-yl)benzoic acid, TFA salt] registered an IC50 of 112 nM. With `COc1c(-c2cn(C(C)C)nc2CN2CCC3(CC2)CN(c2ccc(C(=O)O)cc2)C(=O)O3)ccc(F)c1F` [Example 2-5, 4-(8-{[4-(3,4-Difluoro-2-methoxyphenyl)-1-(propan-2-yl)-1H-pyrazol-3-yl]methyl}-2-oxo-1-oxa-3,8-diazaspiro[4.5]dec-3-yl)benzoic acid, TFA salt] the figure was 191 nM; with `CCCn1cc(-c2ccc(F)c(F)c2F)c(CN2CCC3(CC2)CN(c2ccc(C(=O)O)cc2)C(=O)O3)n1` [Example 2-6, 4-(2-Oxo-8-{[1-propyl-4-(2,3,4-trifluorophenyl)-1H-pyrazol-3-yl]methyl}-1-oxa-3,8-diazaspiro[4.5]dec-3-yl)benzoic acid, TFA salt], 281 nM.
